Patent publication US9028856B2, “Synergistic pesticide compositions” (priority 2008, dated 2015)

Experiments:
[1] = system: Argentine ant, Linepithema humile; test: Knockdown/mortality of ant workers under continuous exposure on treated glazed tile; conditions: for toxicity / efficacy of the substance alone (summary in words): Argentine ant, treated glazed tile
Method: (§1) Solutions of imidacloprid at 0.5% AI were prepared with and without methyl oleate @0.1, 1.0 and 5.0% in acetone. Treatments were applied using a micropipette to dispense 1 ml of test solution evenly on a 6″×6″ glazed tile. Actual coverage was about 5″×5″ (or 161 cm^2) for easy handling. Treatments were allowed to dry overnight. Ten Argentine ant workers were placed within a fluon or talc-coated PVC ring (φ7.6 cm×H 5.1 cm) under continuous exposure. A small vial filled with a cotton ball soaked in water was added as a drinking source after 3 hours. Treatments were replicated a minimum of three times. Evaluations for ant knockdown/mortality were made at various intervals and at 24 hours after exposure.
as §1, with “MATERIALS AND METHODS: Solutions” for “Solutions”, “linoleate” for “oleate”
as §1, with “MATERIALS AND METHODS: Solutions of” for “Solutions of”, “without methyl palmitate @0.1, 1.0” for “without methyl oleate @0.1, 1.0”, “after exposure. […]” for “after exposure.”

[2] = system: bait averse/resistant German cockroach (T-164 strain); test: Knockdown/mortality of male cockroaches under continuous exposure on treated glazed tile; format: in vivo, Blattella germanica; design: Average % Knockdown & Mortality after 5 hr / Average % Knockdown & Mortality after 30 min: concentration or dose not given beside the values; conditions: for Average % Knockdown & Mortality after 3 hr: Table 23, imidacloprid/tritylchloride in acetone; for Average % Knockdown & Mortality after 3 hr / Average % Knockdown & Mortality after 45 min: T-164 strain; for Average % Knockdown & Mortality after 45 min: Table 24, imidacloprid/dibutyl sebacate (DBS) in acetone; for toxicity / efficacy of the substance alone (summary in words): German cockroach T-164, treated glazed tile
[3] = 2 hr, Table 22, imidacloprid/tritylchloride in acetone, glazed tile, continuous exposure
[4] = Table 22, imidacloprid/tritylchloride in acetone, glazed tile, continuous exposure
[5] = 2 hr, Table 25, imidacloprid/dibutyl sebacate (DBS) in acetone, glazed tile
[6] = 4 hr, Table 25, imidacloprid/dibutyl sebacate (DBS) in acetone, glazed tile
[7] = Table 19 (Ex. 16), glazed tile, continuous exposure
[8] = Table 19 (Ex. 16), glazed tile, continuous exposure, listed as TBHQ (0.1%)
[9] = Table 19 (Ex. 16), glazed tile, continuous exposure, listed as TBHQ (1%)
[10] = Table 19 (Ex. 16), glazed tile, continuous exposure, listed as TBHQ (5%)
[11] = Table 18 (Ex. 15), glazed tile, continuous exposure, listed as TBHQ (1%)
[12] = Table 18 (Ex. 15), glazed tile, continuous exposure, listed as TBHQ (5%)
[13] = Table 14 (Ex. 11), glazed tile, continuous exposure
[14] = Table 15 (Ex. 12), glazed tile, continuous exposure
[15] = Table 15 (Ex. 12), glazed tile, continuous exposure, listed as Butylated hydroxyanisole (BHA) (1%)
[16] = Table 15 (Ex. 12), glazed tile, continuous exposure, listed as Butylated hydroxyanisole (BHA) (5%)

`ClC(c1ccccc1)(c1ccccc1)c1ccccc1` [Tritylchloride (5%)] was tested, and the “Average % Knockdown & Mortality after 2 hr” value [1, 3] was 0%, the “Average % Knockdown & Mortality after 5 hr” value [1, 4] was 0% and the “Average % Knockdown & Mortality after 3 hr” value ([2]; glazed tile) was 0%.
For `CCCCOC(=O)CCCCCCCCC(=O)OCCCC` [DBS (5%)], the “Average % Knockdown & Mortality after 2 hr” value [1, 5] was 100%, the “Average % Knockdown & Mortality after 4 hr” value [1, 6] was 100% and the “Average % Knockdown & Mortality after 45 min” value ([2]; glazed tile) was 0%.
`O=C(O)CCc1ccccc1` [benzenepropanoic acid] was tested, and the “toxicity / efficacy of the substance alone (summary in words)” value (“toxicity / efficacy” for short) [1] was “not toxic”, the “Average % Knockdown & Mortality after 3 hr” value ([1]; Table 4 (Ex. 1), glazed tile, continuous exposure) was 0% and the “Average % Knockdown & Mortality after 7 hr” value ([1]; Table 4 (Ex. 1), glazed tile, continuous exposure, listed as Benzenepropanoic acid(1%)) was 0%. For the same compound, the “Average % Knockdown & Mortality after 7 hr” value ([1]; Table 4 (Ex. 1), glazed tile, continuous exposure, listed as Benzenepropanoic acid(5%)) was 7%, the “toxicity / efficacy” value [2] was “slightly to not toxic” and the “Average % Knockdown & Mortality after 15 min” value ([2]; Table 5 (Ex. 2), glazed tile, continuous exposure) was 0%.
`CCCCOC(=O)CCCCCCCCC(=O)OCCCC` [DBS (0.1%)] was tested, and the “Average % Knockdown & Mortality after 2 hr” value [1, 5] was 0%, the “Average % Knockdown & Mortality after 4 hr” value [1, 6] was 9% and the “Average % Knockdown & Mortality after 45 min” value ([2]; glazed tile) was 0%.
For `CC(C)(C)c1cc(O)ccc1O` [TBHQ, tertiary butyl dihydroxyquinone], the “toxicity / efficacy” value [1] was “toxic effect”, the “Average % Knockdown & Mortality after 30 min” value [1, 7] was 0% and the “Average % Knockdown & Mortality after 1 hr” value [1, 7] was 0%. For the same compound, the “Average % Knockdown & Mortality after 6 hr” value [1, 8] was 7%, the “Average % Knockdown & Mortality after 24 hr” value [1, 8] was 11% and the “Average % Knockdown & Mortality after 4 hr” value [1, 9] was 0%. For the same compound, the “Average % Knockdown & Mortality after 6 hr” value [1, 9] was 10%, the “Average % Knockdown & Mortality after 4 hr” value [1, 10] was 10% and the “Average % Knockdown & Mortality after 6 hr” value [1, 10] was 23%. For the same compound, the “Average % Knockdown & Mortality after 24 hr” value [1, 10] was 100%, the “toxicity / efficacy” value [2] was “at the higher rates (1 & 5%) showed delayed toxic effect” and the “Average % Knockdown & Mortality after 30 min” value ([2]; Table 18 (Ex. 15), glazed tile, continuous exposure) was 0%. For the same compound, the “Average % Knockdown & Mortality after 24 hr” value ([2]; Table 18 (Ex. 15), glazed tile, continuous exposure, listed as TBHQ (0.1%)) was 7%, the “Average % Knockdown & Mortality after 1 hr” value [2, 11] was 0% and the “Average % Knockdown & Mortality after 2 hr” value [2, 11] was 0%. For the same compound, the “Average % Knockdown & Mortality after 4 hr” value [2, 11] was 0%, the “Average % Knockdown & Mortality after 24 hr” value [2, 11] was 40% and the “Average % Knockdown & Mortality after 1 hr” value [2, 12] was 7%. The “Average % Knockdown & Mortality after 2 hr” value [2, 12] was 7%, the “Average % Knockdown & Mortality after 4 hr” value [2, 12] was 7% and the “Average % Knockdown & Mortality after 24 hr” value [2, 12] was 47%.
For `ClC(c1ccccc1)(c1ccccc1)c1ccccc1` [Tritylchloride (1%)], the “Average % Knockdown & Mortality after 2 hr” value [1, 3] was 0%, the “Average % Knockdown & Mortality after 5 hr” value [1, 4] was 0% and the “Average % Knockdown & Mortality after 3 hr” value ([2]; glazed tile) was 0%.
With `COc1ccc(O)c(C(C)(C)C)c1` [BHA, butylated hydroxyanisole] the “toxicity / efficacy” value [1] was “delayed toxicity”, the “Average % Knockdown & Mortality after 1 hr” value [1, 13] was 0% and the “Average % Knockdown & Mortality after 2 hr” value [1, 13] was 0%. The “Average % Knockdown & Mortality after 30 min” value ([1]; Table 14 (Ex. 11), glazed tile, continuous exposure, UTC 63% at 24 hr) was 0%, the “Average % Knockdown & Mortality after 24 hr” value ([1]; Table 14 (Ex. 11), glazed tile, continuous exposure, UTC 63% at 24 hr, listed as Butylated hydroxyanisole (BHA) (0.1%)) was 37% and the “Average % Knockdown & Mortality after 24 hr” value ([1]; Table 14 (Ex. 11), glazed tile, continuous exposure, UTC 63% at 24 hr, listed as Butylated hydroxyanisole (BHA) (1%)) was 40%. The “Average % Knockdown & Mortality after 24 hr” value ([1]; Table 14 (Ex. 11), glazed tile, continuous exposure, UTC 63% at 24 hr, listed as Butylated hydroxyanisole (BHA) (5%)) was 74%, the “Average % Knockdown & Mortality after 4 hr” value ([1]; Table 14 (Ex. 11), glazed tile, continuous exposure, listed as Butylated hydroxyanisole (BHA) (0.1%)) was 10% and the “Average % Knockdown & Mortality after 4 hr” value ([1]; Table 14 (Ex. 11), glazed tile, continuous exposure, listed as Butylated hydroxyanisole (BHA) (1%)) was 3%. The “Average % Knockdown & Mortality after 4 hr” value ([1]; Table 14 (Ex. 11), glazed tile, continuous exposure, listed as Butylated hydroxyanisole (BHA) (5%)) was 19%, the “toxicity / efficacy” value [2] was “at the high rate (5%) was toxic to the German cockroach, but not at its lower rates (1.0 and 0.1%)” and the “Average % Knockdown & Mortality after 30 min” value [2, 14] was 0%. For the same compound, the “Average % Knockdown & Mortality after 1 hr” value [2, 14] was 0%, the “Average % Knockdown & Mortality after 24 hr” value ([2]; Table 15 (Ex. 12), glazed tile, continuous exposure, listed as Butylated hydroxyanisole (BHA) (0.1%)) was 20% and the “Average % Knockdown & Mortality after 2 hr” value [2, 15] was 0%. For the same compound, the “Average % Knockdown & Mortality after 4 hr” value [2, 15] was 0%, the “Average % Knockdown & Mortality after 24 hr” value [2, 15] was 0% and the “Average % Knockdown & Mortality after 2 hr” value [2, 16] was 20%. For the same compound, the “Average % Knockdown & Mortality after 4 hr” value [2, 16] was 20% and the “Average % Knockdown & Mortality after 24 hr” value [2, 16] was 73%.
